Reference: patent US20100056443A1, “RADIOPHARMACEUTICAL TO BE USED IN DISTINCTION BETWEEN INFLAMMATIONS AND INFECTIONS IN ORTHOPAEDIC IMPLANTS” (priority 2006, published 2010)
No end group written: not given here.

Columns and labels:
[1] = test system: Gram-positive and Gram-negative bacteria; conditions: cited from earlier work
Escherichia Coli = conditions: cited from earlier work
[2] = test system: Gram-positive bacteria (Streptococcus pyogenes, S. Aureus); conditions: in words; including multi-resistant S. aureus and vancomycin-resistant Enterococcus Faecium; cited from earlier work
Gram-negative bacteria = conditions: in words; HBD-3: P. Aeruginosa, E. Coli; cited from earlier work
yeasts = conditions: in words; b28: yeast C. albicans; cited from earlier work
infection by S. Aureus = assay: Infection detection by 99mTc-HBD-3 in experimental animal model (tissue counting: infection vs sterile inflammation vs normal muscle); format: in vivo, Wistar male rats
Description: Tissue samples were collected from the infection and inflammation seats after 1, 3 and 5 hours as from the injection of the tracer for each group of rats. Such samples were counted in a well-like counter. The countings expressed in terms of cpm/g of tissue were compared to the countings of properly collected normal muscle tissue samples. […] The results have been interpreted as indicating a specific bond of radiomarked recombinant HBD-3 with the S. Aureus.
The rats Nr. 3, 6 and 9 had received a weight dose in marked product higher than the rats Nr. 2, 5 and 8 which, in turn, had received a dose of the same product higher than the rats 1, 4 and 7. As it can be seen, a greater ratio between countings measured onto the abscess seat and those recorded onto the inflammation seat and onto the normal muscle corresponds to a higher dose of radiomarked peptide. Such run lets assuming a dose-depending ratio of dependency of the radiopharmaceutical captation.

S. Aureus [3] = assay: In vitro control of the biological activity of radiomarked HBD-3 (colony count on agar plates); format: cell-based; conditions: for Number of CFU existing in the plates: S. Aureus, 1.2 μg radiomarked HBD-3, 2 hours at 37° C.
Description: (§1) The control was performed as described by Harwing et al. Methods Enzymology 1994, 236: 160-172. In particular, the aliquote portion (20 μl) of a bacterial suspension of S. Aureus containing 5×10^6 CFU/ml was incubated (2 hours at 37° C.) with 200 μl of radiomarked HBD-3 (1.2 μg) and 75 μl of a suitable dilution of a culture broth (Tryptic Soy Broth). After incubation, two samples with dilution factors equalling to 1:1345 and 1:13450 were derived from the mixture. Twentyfive μl of these samples were collected and sown with sterile rod onto plates containing a culture medium (agar plate). After incubation for 24 hours at 37° C. the colonies were counted. A value higher than 800 CFU was considered not assessable due to the difficulty in counting.
(§2) An analogous experiment was carried out, under the same conditions, by using 200 μl of sterile buffer instead of the radiomarked HBD-3.

E. Coli = assay: as above; format: cell-based; conditions: for Number of CFU existing in the plates: E. Coli
Description: as §1, §2
Both tests illustrated above, aimed at testing the sensibility of S. Aureus to the radiomarked HBD-3, were repeated, under identical conditions, with E. Coli with the same purposes. The results are shown in Table III and in FIGS. 1 and 2.

S. pneumoniae = conditions: weak antimicrobial activity; cited from earlier work
B. cepacea = conditions: weak antimicrobial activity; cited from earlier work
S. Aureus [4] = conditions: weak antimicrobial activity; cited from earlier work
S. Carnosous = conditions: strong antimicrobial activity; cited from earlier work
S. cerevisiae = conditions: weak antimicrobial activity; cited from earlier work
P. aeruginosa = conditions: strong antimicrobial activity; cited from earlier work
[5] = dilution 1:1345, >800 CFU not assessable

In the case of “HNP-1: human α-defensin inside neutrophils”, the Bactericide concentrations ([1]; Gram-positive and Gram-negative bacteria) is listed as “greater than 100 μl;”.
In the case of “HNP-2: truncated human α-defensin (CYCRIPACIAGERRYGTCIYQGRLWAFCC; Neutrophil defensin 2; UniProt P59665 66-94, looked up)”, the Activity ([1]; in words, relative to HNP-1) is listed as “Like HPN-1”.
For “HBD-1: human β-defensin, constitutive expression (DHYNCVSSGGQCLYSACPIFTKIQGTCYRGKAKCCK; UniProt P60022 33-68, looked up)”, the Activity (Escherichia Coli; at micro-molecular concentrations) is given as “Bactericide*”.
In the case of “HBD-3: human beta-defensin-3, antimicrobial peptide weighing 5,15 kDa (GIINTLQKYYCRVRGGRCAVLSCLPKEEQIGKCSTRGRKCCRRKK; Beta-defensin 103; UniProt P81534 23-67, looked up)”, the Activity [2] is given as “Bactericide”, the Activity (Gram-negative bacteria) is given as “Bactericide” and the Activity (yeasts) is given as “Bactericide”.
For “radiomarked HBD-3: recombinant human β-defensin-3 marked with 99mTc+ exa-coordinated with 3 molecules of CO and H2O (GIINTLQKYYCRVRGGRCAVLSCLPKEEQIGKCSTRGRKCCRRKK; cysteine pairing not given here; also: 99mTc(CO)3 label, site not given here; UniProt P81534 23-67, looked up)”, the “tracer's captation in the infection seats relative to the inflammation seats” value (infection by S. Aureus; rats, 5 hours as from the tracer's injection, cpm/g of tissue) was 3 times, the “fixation of tracer, inflammatory lesions versus normal muscles” value (infection by S. Aureus; rats, in the whole experiment (1, 3 and 5 hours)) was “no significant fixation differences” and the “tracer's captation, infection seats versus inflammation seats” value (infection by S. Aureus; rats, one hour as from the injection) was “no significant differences”. For the same substance, the “dependency of the radiopharmaceutical captation ratio (abscess vs inflammation seat and normal muscle) on dose” value (infection by S. Aureus; single rats 1-9, doses from 1,6 to 5,2 μg) was “dose-depending”, the “Number of CFU existing in the plates” value (S. Aureus [3]; [5]) was 348 CFU and the “Number of CFU existing in the plates” value (S. Aureus [3]; dilution 1:13450) was 17 CFU. For the same substance, the “biological activity of HBD-3 after marking with 99mTc” value (S. Aureus [3]; towards S. Aureus (greater than towards E. Coli)) was “maintained biological activity”, the “Number of CFU existing in the plates” value (E. Coli; [5]) was greater than 800 CFU and the “Number of CFU existing in the plates” value (E. Coli; dilution 1:13450) was 310 CFU. For the same substance, the “biological activity of HBD-3 after marking with 99mTc” value (E. Coli; towards E. Coli (lower than towards S. Aureus)) was “maintained biological activity”.
For “HBD-4: human β-defensin, constitutive expression (EFELDRICGYGTARCRKKCRSQEYRIGRCPNTYACCLRKWDESLLNRTKP; UniProt Q8WTQ1 23-72, looked up)”, the MIC (Escherichia Coli; weak antimicrobial activity) is given as “(MIC > 100 μg/ml);”, the MIC (S. pneumoniae) is given as “(MIC > 100 μg/ml);” and the MIC (B. cepacea) is given as “(MIC > 100 μg/ml);”. For the same substance, the MIC (S. Aureus [4]) was “(MIC > 100 μg/ml);”, the MIC (S. Carnosous) was “(MIC = 4.5 μg/ml)” and the MIC (S. cerevisiae) was “(MIC > 100 μg/ml);”. For the same substance, the MIC (P. aeruginosa) was “(MIC = 4.1 μg/ml)”.
